The test system of assay [1] is PC-12. The experiment in a line: Neuroprotective activity against hydrogen peroxide-induced cell damage in rat PC12 cells assessed as increase in cell viability at 3.125 to 50 uM preincubated with compound followed by H2O2 challenge by MTT assay. The assay is classed as functional, cell-based. (Formazan colour is commonly taken as a measure of viable cells.)
In assay [2] the test system is VSMC. The experiment in a line: Antiproliferative activity against angiotensin 2-stimulated Wistar rat VSMC after 48 hrs by MTT method. The assay is classed as functional, cell-based.

Calls of active or inactive are those of the source. The rule behind the calls is not given here.

Experimental findings from ChEMBL document CHEMBL3994601, “Polyacetylenic Oleanane-Type Triterpene Saponins from the Roots of Panax japonicus” (J Nat Prod, 2016) are described below.

Regarding `CCCCOC(=O)[C@H]1O[C@@H](O[C@H]2CC[C@]3(C)[C@H]4CC=C5[C@@H]6CC(C)(C)CC[C@]6(C(=O)O[C@@H]6O[C@H](CO)[C@@H](O)[C@H](O)[C@H]6O)CC[C@@]5(C)[C@]4(C)CC[C@H]3C2(C)C)[C@H](O)[C@@H](O)[C@@H]1O[C@@H]1O[C@@H](CO)[C@H](O)[C@H]1O`, in assay [1], the outcome was Active.
On the same count and under the same terms, the same measure for `CCCCOC(=O)[C@H]1O[C@@H](O[C@H]2CC[C@]3(C)[C@H]4CC=C5[C@@H]6CC(C)(C)CC[C@]6(C(=O)O)CC[C@@]5(C)[C@]4(C)CC[C@H]3C2(C)C)[C@H](O[C@@H]2O[C@H](CO)[C@@H](O)[C@H](O)[C@H]2O)[C@@H](O)[C@@H]1O`: “Active”.
As to `COC(=O)[C@H]1O[C@@H](O[C@H]2CC[C@]3(C)[C@H]4CC=C5[C@@H]6CC(C)(C)CC[C@]6(C(=O)O[C@@H]6O[C@H](CO)[C@@H](O)[C@H](O)[C@H]6O)CC[C@@]5(C)[C@]4(C)CC[C@H]3C2(C)C)[C@H](O)[C@@H](O)[C@@H]1O`, the “growth inhibition (GI)” value in assay [2] is “Dose-dependent effect”.
`C=C[C@@H](O)C#CC#CC[C@@H](O)[C@@H](CCCCCCC)OC(=O)[C@H]1O[C@@H](O[C@H]2CC[C@]3(C)[C@H]4CC=C5[C@@H]6CC(C)(C)CC[C@]6(C(=O)O)CC[C@@]5(C)[C@]4(C)CC[C@H]3C2(C)C)[C@H](O[C@@H]2O[C@H](CO)[C@@H](O)[C@H](O)[C@H]2O)[C@@H](O)[C@@H]1O`: the outcome in assay [1] was Active.
